Results taken from patent US4430355A, “Condensed isothiazolo-3 (2H)-one-1-1-dioxides” (priority 1977, dated 1984).
Where a name gives a salt, the structure may show the parent alone.

What was measured:
[1] = test system: intestinal tract of the rat; assay: Ulcerations in the intestinal tract; assay type: in vivo; settings: 3 times 200 mgm/kg p.o.
anesthetized cats = assay: Blood pressure, heart rate and respiration of anesthetized cats; assay type: in vivo; settings: anesthetized cats, 1.0, 3.0 and 10.0 mg/kg i.v.
Method: (§1) The compound C had no effect on the contractility and the frequency of the isolated, beating atrium of the rat heart. When compound C was given in doses of 1.0 and 3.0 and 10.0 mg/kg i.v. no effect on blood pressure, heart rate and respiration of anesthetized cats could be observed. At concentrations of 1×10^-4 mol/liter compound C had no effect on the ADP-induced, thrombine-induced and collagen-induced aggregation of the thrombozytes in the platelet-rich plasma of healthy test persons.

eye of the rabbit = assay: Local compatibility in the eye; assay type: in vivo; settings: 1% solution
[2] = test system: thrombozytes in the platelet-rich plasma of healthy test persons; assay: Thrombozyte aggregation in platelet-rich plasma; assay type: cell-based; settings: 1×10^-4 mol/liter
Method: as §1

male mice = assay: Hypothermia caused by reserpine; assay type: in vivo
From the text: It also has no influence on the hypothermia of male mice, which is caused by reserpine.

[3] = test system: isolated, beating atrium of the rat heart; assay: Isolated, beating atrium
Method: as §1

[4] = Evaluation of taste quality
From the text: They often have a side-taste or after-taste. Novel compounds A to F are, however, characterized by a very pure sweet taste.

rats = assay: Spontaneous motility in electric activity cages (Fuhrer and Feldhofer); assay type: in vivo
Method: (§2) Also, the test of the motility of rats in electric activity cages according to Fuhrer and Feldhofer [Arzneim. Forsch. […] Moreover, no effect regarding the body temperatures of the rats at a dosage of 200 mg/kg p.o. could be observed. The measurements were made after 1, 2, 3 and 4 hours after oral administration of the substance; one control group only received the distilled water solvent.

mice [5] = assay: Electroshock convulsion; assay type: in vivo; settings: 200 mgm/kg p.o.
[6] = test system: Escherichia coli WP 2 (P); assay: AMES-system, test for mutagenic effects, Escherichia coli; assay type: cell-based
Method: In order to show the whole spectrum of induced molecular DNA-damages (base substitutions, frame-shift mutations, deletions) the auxotrophic bacterial strains Salmonella typhimurium TA 98, TA 100 and Escherichia coli WP 2 (P) were used as genetic indicators.
The test for all microorganisms were carried out in a way such that the influence of a microsomal enzyme system, together with the corresponding co-factors, could be tested with regard to the test substance, and to determine the differences in enzyme induction. The tests were performed without an activating system and in the presence of an activating system. […] From the S-9 induced fraction, 3 different concentration levels were tested.

mice [7] = assay: Tail clamp test according to Haffner, defensive reactions to pain stimuli; assay type: in vivo; settings: 200 mgm/kg p.o.
fungi = assay: Fungistatic effect
microorganism growth = assay: Series dilution essay, inhibition of the microorganism growth; assay type: cell-based; settings: highest dosages (C 0.5 mgm/plate, D 20 mg/plate)
Method: (§3) The substance concentrations of compound C were 0.1 and 0.5 mgm/plate and the concentrations of compound D were 5, 10, 15 and 20 mg/plate.

mice [8] = assay: Hexobarbital narcosis, loss of the righting reflex; assay type: in vivo; settings: 25 mgm/kg p.o.
From the text: Compound C has no effect on the hexobarbital narcosis in mice.

bacteria = assay: Bacteriostatic effect
[9] = test system: Salmonella typhimurium TA 98, TA 100, TA 1535, TA 1537, TA 1538; assay: AMES-system, test for mutagenic effects, Salmonella typhimurium; assay type: cell-based
Method: Compounds C and D were tested in the AMES-system [Mutation Research 31, 347-364 (1975)] with regard to their mutagenic properties. In order to show the whole spectrum of induced molecular DNA-damages (base substitutions, frame-shift mutations, deletions) the auxotrophic bacterial strains Salmonella typhimurium TA 98, TA 100 and Escherichia coli WP 2 (P) were used as genetic indicators. The strains Salmonella typhimurium TA 1535, TA 1537 and TA 1538 were additionally used in the test of compound C.
The test for all microorganisms were carried out in a way such that the influence of a microsomal enzyme system, together with the corresponding co-factors, could be tested with regard to the test substance, and to determine the differences in enzyme induction. The tests were performed without an activating system and in the presence of an activating system. For the in vitro-activation, S-9 supernatants (fraction of the endoplasmatic reticulum) of normal, i.e. not pre-treated rats and of Aroclor 1254 (500 mg/kg) induced rats were used. From the S-9 induced fraction, 3 different concentration levels were tested.
as §3

Body temperature = assay type: in vivo; settings: rats, 200 mg/kg p.o.; 1, 2, 3 and 4 hours after administration
Method: as §2

water-loaded male rats = assay: Secretion of Na+, K+, Cl- and liquid in water-loaded rats; assay type: in vivo; settings: 200 mgm/kg p.o.
[10] = Determination of the threshold concentration (taste testers, Schutz and Pilgrim method); design: key: mean of 5 testers; 0 = not sweet, 3 = very sweet
Method: From novel compounds A, B, C, D, E and F and from known comparison compounds U, V and W aqueous solutions in concentrations of 1:12500, 1:25000, 1:50000, 1:100000 and 1:200000 were prepared and evaluated by each of 5 taste testers according to the following criteria: Very sweet (=3 points); medium sweet (=2 points), slightly sweet (=1 point) and not sweet (=0 point). The tests were carried out according to the method of H. G. Schutz and F. J. Pilgrim [Food Research 22, 206 (1957)]. The dilution with perceptible sweetness was defined as the concentration at which the average value reached the evaluation points 1.0 or higher.

mice [11] = assay: Rotating cylinder test, muscle-relaxing and coordination inhibitory effects; assay type: in vivo; settings: 200 mgm/kg p.o.
rat = assay: Orienting acute toxicity, oral, rat; assay type: in vivo; settings: 5000 mgm/kg oral, 6 animals
Method: The acute toxicity was determined after oral administration to male and female mice and to male and female rats. The substances were given in an aqueous solution or as a suspension in tylose.

mice [12] = assay: Spontaneous motility in light beam cages; assay type: in vivo; settings: same dosage (200 mgm/kg p.o.)
[13] = usual concentrations, corresponding to a 2-10% solution of saccharose; cited from earlier work
[14] = Batzinger, On and Bueding, Science 198, 944 (1977); cited from earlier work
[15] = heretofore known sweetening agents; cited from earlier work
[16] = Determination of the relative sweetening power in comparison to saccharose (taste testers, 3% saccharose solution); settings: compared with 3% aqueous solution of saccharose
From the text: The relative sweetening power (often also defined as degree of sweetness) of sweetening agents in comparison to saccharose (cane sugar) varies with the concentrations within wide limits. Thus, in the usual concentrations (corresponding to a 2-10% solution of saccharose) the relative sweetening power of saccharin varies from 200 to 700. Therefore, for the determination of the relative sweetening power of the above-mentioned compounds a 3% aqueous solution of saccharose was always used for comparison.
The further determination of the relative sweetening power was continued according to the methods of R. Pauli [Chemiker Zeitung 44, 744 (1920)] and T. Paul [Chemiker-Zeitung 45 38 (1921)]. Each test series was tested by 4 taste testers.

Cc1cc2c(s1)S(=O)(=O)NC2=O [Compound C, 5-Methyl-thieno[3,2-d]isothiazole-3-(2H)-one-1,1-dioxide sodium salt]
ulcerations in the intestinal tract [1]: does not cause any ulcerations
effect on blood pressure (anesthetized cats): no effect
effect on heart rate (anesthetized cats): no effect
effect on respiration (anesthetized cats): no effect
local anesthesia (eye of the rabbit): no local anesthesia
mydriasis (eye of the rabbit): no mydriasis
redness of the conjunctiva (eye of the rabbit): no redness of the conjunctiva
effect on ADP-induced aggregation of thrombozytes [2]: no effect
effect on collagen-induced aggregation of thrombozytes [2]: no effect
effect on thrombine-induced aggregation of thrombozytes [2]: no effect
influence on reserpine hypothermia (male mice): no influence
effect on contractility [3]: no effect
effect on frequency [3]: no effect
taste quality compared with saccharose (cane sugar) [4]: achieve the taste quality of saccharose
effect on spontaneous motility (rats): did not show any effect on the spontaneous motility
influence on electroshock convulsion (mice [5]): does not influence
release of base substitutions ([6]; E. coli WP2 (P)): do not release base substitutions
increase in the spontaneous mutation rate ([6]; E. coli WP 2 (P), C 0.1 and 0.5 mgm/plate, D 5-20 mg/plate, with and without activating system): did not lead to an increase
influence on the defensive reactions to pain stimuli (mice [7]): did not show any influence
fungistatic effect (fungi): neither bacteriostatically nor fungistatically effective
inhibition of the microorganism growth (microorganism growth): did not show any inhibition
duration of hexobarbital narcosis (loss of the righting reflex) (mice [8]): not influenced
bacteriostatic effect (bacteria): neither bacteriostatically nor fungistatically effective
release of base substitutions ([9]; S. typhimurium TA 1535, TA 100): do not release base substitutions
release of frame-shift mutations ([9]; S. typhimurium TA 1537, TA 1538, TA 98): do not release
increase in the spontaneous mutation rate ([9]; Salmonella strains, C 0.1 and 0.5 mgm/plate, D 5-20 mg/plate, with and without activating system): did not lead to an increase
colonies counted on the substance plates ([9]; all test strains): within the spontaneous range
effect of the enzyme induction and of the activating fraction on the reverse mutation rate ([9]; all tested strains, S-9 of normal and Aroclor 1254 induced rats): not detectable
mutagenic potential ([9]; conclusion over all tested strains): do not indicate a mutagenic potential
effect on body temperature (Body temperature): no effect
secretion of Cl^- (water-loaded male rats): no effect
secretion of K^+ (water-loaded male rats): no effect
secretion of Na^+ (water-loaded male rats): no effect
secretion of liquid (water-loaded male rats): no effect
Average Value of Evaluation Points ([10]; concentration 1:25000, sodium salt): 2.0
Average Value of Evaluation Points ([10]; concentration 1:50000, sodium salt): 1.2
ability to hold themselves in rotating cylinders (mice [11]): able to hold themselves in rotating cylinders
muscle-relaxing and coordination inhibitory effects (mice [11]): no muscle-relaxing and coordination inhibitory effects
Animals which died within the observation time, 1 day (rat): 0 animals
Animals which died within the observation time, 7 days (rat): 0 animals
influence on spontaneous motility (mice [12]): does not influence the spontaneous motility of mice

O=C1NS(=O)(=O)c2ccccc21 [V, Saccharin, reference compound]
relative sweetening power of saccharin [13]: 200 to 700
mutagenic effect [14]: shows a mutagenic effect
side-taste or after-taste [15]: unpleasant after-taste
taste quality compared with saccharose [15]: do not have the taste quality of saccharose
Relative Sweetening Power (Saccharose = 1) [16]: 550
Average Value of Evaluation Points ([10]; concentration 1:25000): 2.4
Average Value of Evaluation Points ([10]; concentration 1:50000): 1.2
Average Value of Evaluation Points ([10]; concentration 1:100000): 0.4
